According to PubChem BioAssay (NCI):
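All cell lines were grown in 96-well plates and treated with compound for 48 hours. Abbreviation: GI50, concentration required for 50% inhibition of growth. Definition used: TGI = concentration required for complete inhibition of growth.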

Tests used:
Experiment in all cases: growth of human tumour cells (NCI), 48 h
SF-268 CNS = test system: SF-268 CNS
HOP-62 NSCLC = test system: HOP-62 NSCLC
SNB-19 CNS = test system: SNB-19 CNS
CAKI-1 renal = test system: CAKI-1 renal
COLO 205 colon = test system: COLO 205 colon
KM12 colon = test system: KM12 colon
RPMI-8226 leukemia = test system: RPMI-8226 leukemia
NCI-H23 lung = test system: NCI-H23 lung
MCF7 breast = test system: MCF7 breast
SF-295 CNS = test system: SF-295 CNS

SMILES | GI50 (SF-268 CNS) [µM] | TGI (SF-268 CNS) [µM] | GI50 (HOP-62 NSCLC) [µM] | TGI (HOP-62 NSCLC) [µM] | GI50 (SNB-19 CNS) [µM] | TGI (SNB-19 CNS) [µM] | GI50 (CAKI-1 renal) [µM] | TGI (CAKI-1 renal) [µM] | GI50 (COLO 205 colon) [µM] | TGI (COLO 205 colon) [µM] | GI50 (KM12 colon) [µM] | TGI (KM12 colon) [µM] | GI50 (RPMI-8226 leukemia) [µM] | TGI (RPMI-8226 leukemia) [µM] | GI50 (NCI-H23 lung) [µM] | TGI (NCI-H23 lung) [µM] | GI50 (MCF7 breast) [µM] | TGI (MCF7 breast) [µM] | GI50 (SF-295 CNS) [µM] | TGI (SF-295 CNS) [µM]
CC(=O)OC[C@H]1O[C@@H](n2ccc(=O)[nH]c2=O)[C@H](OC(C)=O)[C@@H]1OC(C)=O | > 100 | > 100 | > 100 | > 100 | > 100 | > 100 | > 100 | > 100 | > 100 | > 100 | > 100 | > 100 | > 100 | > 100 | > 100 | > 100 | > 100 | > 100 | > 100 | > 100
CN(C)CCCn1c2c(c3cnccc3c1=O)C(=O)c1ccccc1-2 | 0.62 | 7.24 | 0.402 | 7.75 | 0.362 | 3.96 | 0.376 | 7.01 | 0.269 | 3.66 | 0.488 | 9.58 | 0.337 | 1.65 | 0.55 | 3.73 | 0.244 | 1.76 | 0.737 | 5.59
CCN(Cc1cccc(OC)c1)c1ccc(CO)c(Cl)c1 | 22.5 | 71.6 | 3.23 | 39.2 | 24 | > 100 | 0.901 | 35.3 | 1.02 | 4.35 | 17.1 | 40.5 | 6.44 | 47.9 | 13.6 | 51 | 0.196 | 14.5 | 0.889 | 22
CSc1nc2c(c(=O)[nH]1)N=C1c3ccccc3C(=O)C1C(c1ccc(F)cc1)N2 (stereo not given) | 12.7 | 49.9 | 11.9 | 33.7 | 15.9 | 66 | 3.31 | 35.6 | 13 | > 100 | 3.77 | 15.6 | 4.2 | > 100 | 13.5 | 55.9 | 5.18 | 62.4 | 3.67 | 34.3
